Measured values as given in patent US9409866B2, “Pyridine-2-amides useful as CB2 agonists” (Hoffmann-La Roche Inc., priority 2012, dated 2016).
Like-named read-outs stand apart in the source and are kept apart here.

Assays:
human CB1 receptors = human CB1 receptors (Homo sapiens (Human), UniProt P21554); assay: functional cAMP assay, CHO cells expressing human CB1; format: cell-based; details: functional cAMP assay, CHO cells expressing human CB1
Outline: (§1)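 CHO-hCB1/hCB2 cells, KRB + 1 mM IBMX preincubation 30 min 30 °C; cpd 30 min 30 °C; lysis + TR-FRET cAMP detection, 2 h RT; cAMP from std curve; EC50.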

human CB2 receptors = human CB2 receptors (Homo sapiens (Human), UniProt P34972); assay: functional cAMP assay, CHO cells expressing human CB2; format: cell-based
Outline: as §1

Sequence of human CB1 receptors (P21554 whole entry): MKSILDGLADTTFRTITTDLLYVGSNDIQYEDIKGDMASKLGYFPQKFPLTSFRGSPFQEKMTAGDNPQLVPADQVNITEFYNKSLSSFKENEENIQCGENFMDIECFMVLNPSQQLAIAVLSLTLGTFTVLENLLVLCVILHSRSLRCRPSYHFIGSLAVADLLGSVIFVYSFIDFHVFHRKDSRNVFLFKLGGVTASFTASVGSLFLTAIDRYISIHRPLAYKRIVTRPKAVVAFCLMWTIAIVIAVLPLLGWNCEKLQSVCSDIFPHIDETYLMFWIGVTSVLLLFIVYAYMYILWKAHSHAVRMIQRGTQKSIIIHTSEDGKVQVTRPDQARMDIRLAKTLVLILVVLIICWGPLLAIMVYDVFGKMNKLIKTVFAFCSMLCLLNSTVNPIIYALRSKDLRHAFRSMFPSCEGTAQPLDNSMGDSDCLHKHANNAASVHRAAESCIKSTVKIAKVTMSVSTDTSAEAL
Sequence of human CB2 receptors (P34972 whole entry): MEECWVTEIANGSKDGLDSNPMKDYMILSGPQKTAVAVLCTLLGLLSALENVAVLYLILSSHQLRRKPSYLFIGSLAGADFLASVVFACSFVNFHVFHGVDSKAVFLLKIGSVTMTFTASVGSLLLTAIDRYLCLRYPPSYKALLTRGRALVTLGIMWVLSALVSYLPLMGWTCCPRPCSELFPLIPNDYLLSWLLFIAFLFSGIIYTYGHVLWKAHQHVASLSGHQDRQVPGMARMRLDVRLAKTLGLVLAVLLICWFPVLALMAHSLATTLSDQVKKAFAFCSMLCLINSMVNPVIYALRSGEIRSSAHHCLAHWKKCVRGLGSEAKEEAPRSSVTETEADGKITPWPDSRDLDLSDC

**Q.** `Cc1nc(C(C)(NC(=O)c2cc(OCC(F)(F)F)c(C3CC3)cn2)C(=O)N2CC(F)(F)C2)no1` (stereo not drawn) [Example 147, 5-cyclopropyl-N-[1-(3,3-difluoroazetidin-1-yl)-2-(5-methyl-1,2,4-oxadiazol-3-yl)-1-oxopropan-2-yl]-4-(2,2,2-trifluoroethoxy)pyridine-2-carboxamide] was tested. Which EC50 (human CB1 receptors; read-out: Human CB1 EC50) did it give?
**A.** > 10 µM

**Q.** What about the EC50 (human CB2 receptors; read-out: Human CB2 EC50) of the same compound?
**A.** 0.0454 µM

**Q.** Which EC50 (human CB1 receptors; read-out: Human CB1 EC50) does the source give for `Cc1nc(C(C)(NC(=O)c2cc(OCC(F)(F)F)c(C3CC3)cn2)C(=O)N2CC3(COC3)C2)no1` (stereo not drawn) [Example 148, 5-cyclopropyl-N-[2-(5-methyl-1,2,4-oxadiazol-3-yl)-1-(2-oxa-6-azaspiro[3.3]heptan-6-yl)-1-oxopropan-2-yl]-4-(2,2,2-trifluoroethoxy)pyridine-2-carboxamide] here?
**A.** > 10 µM

**Q.** What about the EC50 (human CB2 receptors; read-out: Human CB2 EC50) of the same compound?
**A.** 0.205 µM

**Q.** For `CNC(=O)C(C)(NC(=O)c1cc(OCC(F)(F)F)c(C2CC2)cn1)c1noc(C)n1` (stereo not drawn) [Example 149, 5-cyclopropyl-N-[1-(methylamino)-2-(5-methyl-1,2,4-oxadiazol-3-yl)-1-oxopropan-2-yl]-4-(2,2,2-trifluoroethoxy)pyridine-2-carboxamide], which EC50 (human CB1 receptors; read-out: Human CB1 EC50) is on record?
**A.** > 10 µM

**Q.** And the EC50 (human CB2 receptors; read-out: Human CB2 EC50)?
**A.** 0.0127 µM

**Q.** How did the EC50 (human CB1 receptors; read-out: Human CB1 EC50) turn out when `Cn1nnc(C(C)(CC2CC2)NC(=O)c2cc(OCC(F)(F)F)c(C3CC3)cn2)n1` (stereo not drawn) [Example 150, 5-cyclopropyl-N-[1-cyclopropyl-2-(2-methyltetrazol-5-yl)propan-2-yl]-4-(2,2,2-trifluoroethoxy)pyridine-2-carboxamide] was run?
**A.** > 10 µM

**Q.** What about the EC50 (human CB2 receptors; read-out: Human CB2 EC50) of the same compound?
**A.** 0.109 µM

**Q.** Which results are given for `Cn1nnnc1C(C)(CC1CC1)NC(=O)c1cc(OCC(F)(F)F)c(C2CC2)cn1` (stereo not drawn) [Example 151, 5-cyclopropyl-N-[1-cyclopropyl-2-(1-methyltetrazol-5-yl)propan-2-yl]-4-(2,2,2-trifluoroethoxy)pyridine-2-carboxamide]?
**A.** EC50 (human CB1 receptors; read-out: Human CB1 EC50): > 10 µM; EC50 (human CB2 receptors; read-out: Human CB2 EC50): 0.0198 µM

**Q.** `Cc1csc(C2(NC(=O)c3cc(OCC(F)(F)F)c(C4CC4)cn3)CCOCC2)n1` [Example 152, 5-cyclopropyl-N-[4-(4-methyl-1,3-thiazol-2-yl)oxan-4-yl]-4-(2,2,2-trifluoroethoxy)pyridine-2-carboxamide] was tested. Which EC50 (human CB1 receptors; read-out: Human CB1 EC50) did it give?
**A.** > 10 µM

**Q.** What about the EC50 (human CB2 receptors; read-out: Human CB2 EC50) of the same compound?
**A.** 0.185 µM

**Q.** For `Cc1cnc(C2(NC(=O)c3cc(OCC(F)(F)F)c(C4CC4)cn3)CCOCC2)s1` [Example 153, 5-cyclopropyl-N-[4-(5-methyl-1,3-thiazol-2-yl)oxan-4-yl]-4-(2,2,2-trifluoroethoxy)pyridine-2-carboxamide], which EC50 (human CB1 receptors; Human CB1 EC50 (uM)) is on record?
**A.** > 10 µM

**Q.** And the EC50 (human CB2 receptors; Human CB2 EC50 (uM))?
**A.** 0.0407 µM

**Q.** Which EC50 (human CB1 receptors; read-out: Human CB1 EC50) does the source give for `Cc1csc(C(C)(CC2CC2)NC(=O)c2cc(OCC(F)(F)F)c(C3CC3)cn2)n1` (stereo not drawn) [Example 158, 5-cyclopropyl-N-[1-cyclopropyl-2-(4-methyl-1,3-thiazol-2-yl)propan-2-yl]-4-(2,2,2-trifluoroethoxy)pyridine-2-carboxamide] here?
**A.** > 10 µM

**Q.** And the EC50 (human CB2 receptors; read-out: Human CB2 EC50)?
**A.** 0.0958 µM

**Q.** What does the source list for `CC(CC1CC1)(NC(=O)c1cc(OCC(F)(F)F)c(C2CC2)cn1)c1nnn[nH]1` (stereo not drawn) [Example 159, 5-cyclopropyl-N-[1-cyclopropyl-2-(1H-tetrazol-5-yl)propan-2-yl]-4-(2,2,2-trifluoroethoxy)pyridine-2-carboxamide]?
**A.** EC50 (human CB1 receptors; read-out: Human CB1 EC50): > 10 µM; EC50 (human CB2 receptors; read-out: Human CB2 EC50): 0.935 µM

**Q.** Which EC50 (human CB1 receptors; read-out: Human CB1 EC50) does the source give for `NC(=O)CC1(NC(=O)c2cc(OCC(F)(F)F)c(C3CC3)cn2)CS(=O)(=O)C1` [Example 160, N-[3-(2-amino-2-oxoethyl)-1,1-dioxothietan-3-yl]-5-cyclopropyl-4-(2,2,2-trifluoroethoxy)pyridine-2-carboxamide] here?
**A.** > 10 µM

**Q.** And the EC50 (human CB2 receptors; read-out: Human CB2 EC50)?
**A.** 0.0118 µM

**Q.** What does the source list for `Cc1nc(C(NC(=O)c2cc(OCC(F)(F)F)c(C3CC3)cn2)C(C)(C)C)no1` (stereo not drawn) [Example 161, 5-cyclopropyl-N-[2,2-dimethyl-1-(5-methyl-1,2,4-oxadiazol-3-yl)propyl]-4-(2,2,2-trifluoroethoxy)pyridine-2-carboxamide]?
**A.** EC50 (human CB1 receptors; read-out: Human CB1 EC50): > 10 µM; EC50 (human CB2 receptors; read-out: Human CB2 EC50): 0.0088 µM

**Q.** Which results are given for `CC(C)(C)C(NC(=O)c1cc(OCC(F)(F)F)c(C2CC2)cn1)c1nn[nH]n1` (stereo not drawn) [Example 162, 5-cyclopropyl-N-[2,2-dimethyl-1-(1H-tetrazol-5-yl)propyl]-4-(2,2,2-trifluoroethoxy)pyridine-2-carboxamide]?
**A.** EC50 (human CB1 receptors; read-out: Human CB1 EC50): > 10 µM; EC50 (human CB2 receptors; read-out: Human CB2 EC50): 0.0717 µM

**Q.** What does the source list for `Cn1nnc(C(NC(=O)c2cc(OCC(F)(F)F)c(C3CC3)cn2)C(C)(C)C)n1` (stereo not drawn) [Example 163, 5-cyclopropyl-N-[2,2-dimethyl-1-(2-methyltetrazol-5-yl)propyl]-4-(2,2,2-trifluoroethoxy)pyridine-2-carboxamide]?
**A.** EC50 (human CB1 receptors; read-out: Human CB1 EC50): > 10 µM; EC50 (human CB2 receptors; read-out: Human CB2 EC50): 0.0045 µM

**Q.** `CC(CC1CC1)(NC(=O)c1cc(OCC(F)(F)F)c(C2CC2)cn1)c1noc(N)n1` (stereo not drawn) [Example 165, N-[2-(5-amino-1,2,4-oxadiazol-3-yl)-1-cyclopropylpropan-2-yl]-5-cyclopropyl-4-(2,2,2-trifluoroethoxy)pyridine-2-carboxamide] was tested. Which EC50 (human CB1 receptors; read-out: Human CB1 EC50) did it give?
**A.** > 10 µM

**Q.** What about the EC50 (human CB2 receptors; read-out: Human CB2 EC50) of the same compound?
**A.** 0.022 µM

**Q.** Which EC50 (human CB1 receptors; read-out: Human CB1 EC50) does the source give for `Cc1nc([C@@](C)(NC(=O)c2cc(O[C@@H](C)C(F)(F)F)c(C3(F)COC3)cn2)C2CC2)no1` [Example 168, N-[1-cyclopropyl-1-(5-methyl-1,2,4-oxadiazol-3-yl)ethyl]-5-(3-fluorooxetan-3-yl)-4-[(2S)-1,1,1-trifluoropropan-2-yl]oxypyridine-2-carboxamide] here?
**A.** > 10 µM

**Q.** What about the EC50 (human CB2 receptors; read-out: Human CB2 EC50) of the same compound?
**A.** 0.281 µM

**Q.** For `Cc1nc(C(C)(NC(=O)c2cc(O[C@@H](C)C(F)(F)F)c(C3(F)COC3)cn2)C2CC2)no1` (stereo partly drawn) [Example 169, N-[1-cyclopropyl-1-(5-methyl-1,2,4-oxadiazol-3-yl)ethyl]-5-(3-fluorooxetan-3-yl)-4-[(2S)-1,1,1-trifluoropropan-2-yl]oxypyridine-2-carboxamide], which EC50 (human CB1 receptors; read-out: Human CB1 EC50) is on record?
**A.** > 10 µM

**Q.** What about the EC50 (human CB2 receptors; read-out: Human CB2 EC50) of the same compound?
**A.** 0.0055 µM

**Q.** For `Cc1nc(C(C)(CC2CC2)NC(=O)c2cc(O[C@@H](C)C(F)(F)F)c(C3(F)COC3)cn2)no1` (stereo partly drawn) [Example 170, N-[1-cyclopropyl-2-(5-methyl-1,2,4-oxadiazol-3-yl)propan-2-yl]-5-(3-fluorooxetan-3-yl)-4-[(2S)-1,1,1-trifluoropropan-2-yl]oxypyridine-2-carboxamide], which EC50 (human CB1 receptors; read-out: Human CB1 EC50) is on record?
**A.** > 10 µM

**Q.** What about the EC50 (human CB2 receptors; read-out: Human CB2 EC50) of the same compound?
**A.** 0.0254 µM

**Q.** Which results are given for `Cc1nc(C(C)(CC2CC2)NC(=O)c2cc(O[C@@H](C)C(F)(F)F)c(C3(F)COC3)cn2)no1` (stereo partly drawn) [Example 171, N-[1-cyclopropyl-2-(5-methyl-1,2,4-oxadiazol-3-yl)propan-2-yl]-5-(3-fluorooxetan-3-yl)-4-[(2S)-1,1,1-trifluoropropan-2-yl]oxypyridine-2-carboxamide]?
**A.** EC50 (human CB1 receptors; read-out: Human CB1 EC50): > 10 µM; EC50 (human CB2 receptors; read-out: Human CB2 EC50): 0.0149 µM

**Q.** With `CNC(=O)[C@@H](NC(=O)c1cc(O[C@@H](C)C(F)(F)F)c(C2(F)COC2)cn1)C(C)(C)C` [Example 172, N-[(2S)-3,3-dimethyl-1-(methylamino)-1-oxobutan-2-yl]-5-(3-fluorooxetan-3-yl)-4-[(2S)-1,1,1-trifluoropropan-2-yl]oxypyridine-2-carboxamide] as the compound, how does the EC50 (human CB1 receptors; read-out: Human CB1 EC50) read?
**A.** > 10 µM

**Q.** And the EC50 (human CB2 receptors; read-out: Human CB2 EC50)?
**A.** 0.0329 µM

**Q.** Which results are given for `Cc1nnc(C(C)(CC2CC2)NC(=O)c2cc(OCC(F)(F)F)c(C3CC3)cn2)o1` (stereo not drawn) [Example 173, 5-cyclopropyl-N-[1-cyclopropyl-2-(5-methyl-1,3,4-oxadiazol-2-yl)propan-2-yl]-4-(2,2,2-trifluoroethoxy)pyridine-2-carboxamide]?
**A.** EC50 (human CB1 receptors; read-out: Human CB1 EC50): > 10 µM; EC50 (human CB2 receptors; read-out: Human CB2 EC50): 0.0544 µM

**Q.** Which EC50 (human CB1 receptors; read-out: Human CB1 EC50) does the source give for `Cc1nnc(C(NC(=O)c2cc(OCC(F)(F)F)c(C3CC3)cn2)C(C)(C)C)o1` (stereo not drawn) [Example 174, 5-cyclopropyl-N-[2,2-dimethyl-1-(5-methyl-1,3,4-oxadiazol-2-yl)propyl]-4-(2,2,2-trifluoroethoxy)pyridine-2-carboxamide] here?
**A.** > 10 µM

**Q.** What about the EC50 (human CB2 receptors; read-out: Human CB2 EC50) of the same compound?
**A.** 0.0218 µM
